According to patent US10858356B2, “Pyrazolopyridine derivative having GLP-1 receptor agonist effect” (Chugai Seiyaku Kabushiki Kaisha, priority 2016, dated 2020):
pEC50: −log10 of the molar value.

Each compound was assayed against human GLP1R (Homo sapiens (Human), UniProt P43220) (assay: In vitro cAMP signal activation in human GLP1R stably-expressing cell line (hGLP1R-HEK293)). Conditions: cAMP concentration in hGLP1R-HEK293; 100% = 1 nM human GLP-1 (7-37).
Assay type: cell-based
Experimental: <Test Example 1> Measurement of In Vitro cAMP Signal Activation of a Compound in Human GLP1R
A human GLP1R stably-expressing cell line (hGLP1R-HEK293) was used in the experiment. The cells were cultured in a Dulbecco's modified Eagle's medium (DMEM) containing 10% fetal bovine serum (Sigma-Aldrich), 100 units/mL penicillin G and 100 μg/mL streptomycin sulfate (Gibco), and 500 μg/mL Geneticin (Gibco), under a moist atmosphere containing 5% CO2, at 37° C.
hGLP1R-HEK293 was seeded in 96 well plates at 2.0×10^4 cells per well and cultured over night. The medium for culturing the cells was changed to 50 μL of Medium A (DMEM, 20 mM HEPES, 0.05% BSA, 0.5 mM 3-isobutyl-1-methylxanthine) the next day, and the cells were incubated at 37° C. for 30 min. Then, 50 μL of Medium B (DMEM, 20 mM HEPES, 0.05% BSA, 0.5 mM 3-isobutyl-1-methylxanthine) containing GLP-1 or the compound was added, and the cells were incubated at 37° C. for an additional 30 min. Then, 100 μL of Assay lysis buffer (Applied Bioscience) was added, and the cells were incubated at 37° C. for 30 min. The cAMP concentration was quantified using cAMP HiRange kit (Cisbio Bioassays).
By setting the cAMP concentration when the human GLP-1 (7-37) was put into action at a concentration of 1 nM to 100%, the cAMP concentration of each well was converted to a reaction rate (%).

Sequence of human GLP1R (P43220 24-463): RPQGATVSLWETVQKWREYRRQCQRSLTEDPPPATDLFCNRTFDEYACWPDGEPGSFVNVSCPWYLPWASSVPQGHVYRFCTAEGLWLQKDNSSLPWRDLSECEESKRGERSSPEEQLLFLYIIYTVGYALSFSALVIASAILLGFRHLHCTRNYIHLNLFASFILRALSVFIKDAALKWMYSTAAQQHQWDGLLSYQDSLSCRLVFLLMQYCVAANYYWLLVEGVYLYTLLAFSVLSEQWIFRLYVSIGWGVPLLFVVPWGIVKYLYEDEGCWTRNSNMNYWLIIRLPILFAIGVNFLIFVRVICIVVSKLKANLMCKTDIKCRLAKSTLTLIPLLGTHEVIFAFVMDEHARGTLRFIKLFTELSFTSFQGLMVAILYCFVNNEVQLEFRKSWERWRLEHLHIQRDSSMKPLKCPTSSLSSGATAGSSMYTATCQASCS

SMILES	pEC50
CCc1nccc(-c2ccc3c(c2)cc(C(=O)N2CCc4nn(-c5cc(C)c(F)c(C)c5)c(-n5ccn(-c6ccc7c(cnn7C)c6)c5=O)c4C2)n3[C@@]2(c3noc(=O)[nH]3)C[C@@H]2C)c1C [Example 2, 3-[(1S,2S)-1-[5-(2-ethyl-3-methylpyridin-4-yl)-2-[2-(4-fluoro-3,5-dimethylphenyl)-3-[3-(1-methylindazol-5-yl)-2-oxoimidazol-1-yl]-6,7-dihydro-4H-pyrazolo[4,3-c]pyridine-5-carbonyl]indol-1-yl]-2-methylcyclopropyl]-4H-1,2,4-oxadiazol-5-one]	8.25
CCc1nccc(-c2ccc3c(c2)cc(C(=O)N2CCc4nn(-c5cc(C)c(F)c(C)c5)c(-n5ccn(-c6ccc7c(C)nsc7c6)c5=O)c4C2)n3[C@@]2(c3noc(=O)[nH]3)C[C@@H]2C)c1C [Example 3]	8.21
CCc1nccc(-c2ccc3c(c2)cc(C(=O)N2CCc4nn(-c5cc(C)c(F)c(C)c5)c(-n5ccn(-c6ccc(OC)c(F)c6)c5=O)c4C2)n3[C@@]2(c3noc(=O)[nH]3)C[C@@H]2C)c1C [Example 4]	7.92
CCc1nccc(-c2ccc3c(c2)cc(C(=O)N2CCc4nn(-c5cc(C)c(F)c(C)c5)c(-n5ccn(-c6ccc7c(C)nn(C)c7c6)c5=O)c4C2)n3[C@@]2(c3noc(=O)[nH]3)C[C@@H]2C)c1C [Example 5, 3-[(1S,2S)-1-[2-[3-[3-(1,3-dimethylindazol-6-yl)-2-oxoimidazol-1-yl]-2-(4-fluoro-3,5-dimethylphenyl)-6,7-dihydro-4H-pyrazolo[4,3-c]pyridine-5-carbonyl]-5-(2-ethyl-3-methylpyridin-4-yl)indol-1-yl]-2-methylcyclopropyl]-4H-1,2,4-oxadiazol-5-one]	8.21
COc1nccc(-c2ccc3c(c2)cc(C(=O)N2CCc4nn(-c5cc(C)c(F)c(C)c5)c(-n5ccn(-c6ccc7c(cnn7CC(C)(C)O)c6)c5=O)c4C2)n3[C@@]2(c3noc(=O)[nH]3)C[C@@H]2C)c1C [Example 6, 3-[(1S,2S)-1-[2-[2-(4-fluoro-3,5-dimethylphenyl)-3-[3-[1-(2-hydroxy-2-methylpropyl)indazol-5-yl]-2-oxoimidazol-1-yl]-6,7-dihydro-4H-pyrazolo[4,3-c]pyridine-5-carbonyl]-5-(2-methoxy-3-methylpyridin-4-yl)indol-1-yl]-2-methylcyclopropyl]-4H-1,2,4-oxadiazol-5-one]	8.54
Cc1cc(-n2nc3c(c2-n2ccn(-c4ccc5c(cnn5[C@@H]5CCOC5)c4)c2=O)CN(C(=O)c2cc4cc(C5CCOCC5)ccc4n2[C@@]2(c4noc(=O)[nH]4)C[C@@H]2C)CC3)cc(C)c1F [Example 8, 3-[(1S,2S)-1-[2-[2-(4-fluoro-3,5-dimethylphenyl)-3-[2-oxo-3-[1-[(3R)-oxolan-3-yl]indazol-5-yl]imidazol-1-yl]-6,7-dihydro-4H-pyrazolo[4,3-c]pyridine-5-carbonyl]-5-(oxan-4-yl)indol-1-yl]-2-methylcyclopropyl]-4H-1,2,4-oxadiazol-5-one]	8.60
COCCCN(C(C)=O)c1ccc(-n2ccn(-c3c4c(nn3-c3cc(C)c(F)c(C)c3)CCN(C(=O)c3cc5cc(C6CCOCC6)ccc5n3[C@@]3(c5noc(=O)[nH]5)C[C@@H]3C)C4)c2=O)cc1OC [Example 9, N-[4-[3-[2-(4-fluoro-3,5-dimethylphenyl)-5-[1-[(1S,2S)-2-methyl-1-(5-oxo-4H-1,2,4-oxadiazol-3-yl)cyclopropyl]-5-(oxan-4-yl)indole-2-carbonyl]-6,7-dihydro-4H-pyrazolo[4,3-c]pyridin-3-yl]-2-oxoimidazol-1-yl]-2-methoxyphenyl]-N-(3-methoxypropyl)acetamide]	8.74
Cc1cc(-n2nc3c(c2-n2ccn(-c4ccc5c(cnn5CC(F)(F)F)c4)c2=O)CN(C(=O)c2cc4cc(C5CCOCC5)ccc4n2[C@@]2(c4noc(=O)[nH]4)C[C@@H]2C)CC3)cc(C)c1F [Example 10, 3-[(1S,2S)-1-[2-[2-(4-fluoro-3,5-dimethylphenyl)-3-[2-oxo-3-[1-(2,2,2-trifluoroethyl)indazol-5-yl]imidazol-1-yl]-6,7-dihydro-4H-pyrazolo[4,3-c]pyridine-5-carbonyl]-5-(oxan-4-yl)indol-1-yl]-2-methylcyclopropyl]-4H-1,2,4-oxadiazol-5-one]	8.55
COc1nccc(-c2ccc3c(c2)cc(C(=O)N2CCc4nn(-c5cc(C)c(F)c(C)c5)c(-n5ccn(-c6ccc7c(cnn7C)c6)c5=O)c4[C@@H]2C)n3[C@@]2(c3noc(=O)[nH]3)C[C@@H]2C)c1C [Example 12, 3-[(1S,2S)-1-[2-[(4S)-2-(4-fluoro-3,5-dimethylphenyl)-4-methyl-3-[3-(1-methylindazol-5-yl)-2-oxoimidazol-1-yl]-6,7-dihydro-4H-pyrazolo[4,3-c]pyridine-5-carbonyl]-5-(2-methoxy-3-methylpyridin-4-yl)indol-1-yl]-2-methylcyclopropyl]-4H-1,2,4-oxadiazol-5-one]	8.57
COc1nccc(-c2ccc3c(c2)cc(C(=O)N2CCc4nn(-c5cc(C)c(F)c(C)c5)c(-n5ccn(-c6ccc7c(cnn7CC(C)(C)O)c6)c5=O)c4[C@@H]2C)n3[C@@]2(c3noc(=O)[nH]3)C[C@@H]2C)c1C [Example 13, 3-[(1S,2S)-1-[2-[(4S)-2-(4-fluoro-3,5-dimethylphenyl)-3-[3-[1-(2-hydroxy-2-methylpropyl)indazol-5-yl]-2-oxoimidazol-1-yl]-4-methyl-6,7-dihydro-4H-pyrazolo[4,3-c]pyridine-5-carbonyl]-5-(2-methoxy-3-methylpyridin-4-yl)indol-1-yl]-2-methylcyclopropyl]-4H-1,2,4-oxadiazol-5-one]	8.43

The remaining lines, values ahead:

pEC50	SMILES
8.80	CCS(=O)(=O)c1ccc(-n2ccn(-c3c4c(nn3-c3cc(C)c(F)c(C)c3)CCN(C(=O)c3cc5cc(C6CCOCC6)ccc5n3[C@@]3(c5noc(=O)[nH]5)CC3C)[C@H]4C)c2=O)cc1 (stereo in doubt) [Example 21, 3-[(1S,2S)-1-[2-[(4S)-3-[3-(4-ethylsulfonylphenyl)-2-oxoimidazol-1-yl]-2-(4-fluoro-3,5-dimethylphenyl)-4-methyl-6,7-dihydro-4H-pyrazolo[4,3-c]pyridine-5-carbonyl]-5-(oxan-4-yl)indol-1-yl]-2-methylcyclopropyl]-4H-1,2,4-oxadiazol-5-one]
8.80	COCCn1c(=O)n(C)c2cc(-n3ccn(-c4c5c(nn4-c4cc(C)c(F)c(C)c4)CCN(C(=O)c4cc6cc(C7CCOC(C)(C)C7)ccc6n4[C@@]4(c6noc(=O)[nH]6)C[C@@H]4C)[C@H]5C)c3=O)ccc21 (stereo in doubt) [Example 33, 3-[(1S,2S)-1-[5-[(4S)-2,2-dimethyloxan-4-yl]-2-[(4S)-2-(4-fluoro-3,5-dimethylphenyl)-3-[3-[1-(2-methoxyethyl)-3-methyl-2-oxobenzoimidazol-5-yl]-2-oxoimidazol-1-yl]-4-methyl-6,7-dihydro-4H-pyrazolo[4,3-c]pyridine-5-carbonyl]indol-1-yl]-2-methylcyclopropyl]-4H-1,2,4-oxadiazol-5-one]
8.52	Cc1cc(-n2nc3c(c2-n2ccn(-c4ccc5[nH]ncc5c4)c2=O)[C@H](C)N(C(=O)c2cc4cc(C5CCOC(C)(C)C5)ccc4n2[C@@]2(c4noc(=O)[nH]4)C[C@@H]2C)CC3)cc(C)c1F (stereo in doubt) [Example 34, 3-[(1S,2S)-1-[5-[(4S)-2,2-dimethyloxan-4-yl]-2-[(4S)-2-(4-fluoro-3,5-dimethylphenyl)-3-[3-(1H-indazol-5-yl)-2-oxoimidazol-1-yl]-4-methyl-6,7-dihydro-4H-pyrazolo[4,3-c]pyridine-5-carbonyl]indol-1-yl]-2-methylcyclopropyl]-4H-1,2,4-oxadiazol-5-one]
8.49	COCCn1ncc2cc(-n3ccn(-c4c5c(nn4-c4cc(C)c(F)c(C)c4)CCN(C(=O)c4cc6cc(N7CCOC(C)(C)C7)ccc6n4[C@@]4(c6noc(=O)[nH]6)C[C@@H]4C)C5)c3=O)ccc21 [Example 7, 3-[(1S,2S)-1-[5-(2,2-dimethylmorpholin-4-yl)-2-[2-(4-fluoro-3,5-dimethylphenyl)-3-[3-[1-(2-methoxyethyl)indazol-5-yl]-2-oxoimidazol-1-yl]-6,7-dihydro-4H-pyrazolo[4,3-c]pyridine-5-carbonyl]indol-1-yl]-2-methylcyclopropyl]-4H-1,2,4-oxadiazol-5-one]
8.96	COCCn1ncc2cc(-n3ccn(-c4c5c(nn4-c4cc(C)c(F)c(C)c4)CCN(C(=O)c4cc6cc(-c7ccnc(OC)c7C)ccc6n4[C@@]4(c6noc(=O)[nH]6)C[C@@H]4C)[C@H]5C)c3=O)ccc21 [Example 11, 3-[(1S,2S)-1-[2-[(4S)-2-(4-fluoro-3,5-dimethylphenyl)-3-[3-[1-(2-methoxyethyl)indazol-5-yl]-2-oxoimidazol-1-yl]-4-methyl-6,7-dihydro-4H-pyrazolo[4,3-c]pyridine-5-carbonyl]-5-(2-methoxy-3-methylpyridin-4-yl)indol-1-yl]-2-methylcyclopropyl]-4H-1,2,4-oxadiazol-5-one]
